The compounds below were run against T1, human Cav3.2 channels (Homo sapiens, UniProt O95180) (assay: T-type calcium blocking action: intracellular calcium (Fluo-4 AM fluorescence) in HEK293 cells steadily expressing human Cav3.2 channels). Conditions: HEK293 cells expressing human Cav3.2; KCl-stimulated calcium influx, Fluo-4 fluorescence; Tables 1 to 3.
T1 construct: human Cav3.2 channel ORF (Open Reading Frame) gene; expressed in transfected cells; host or cells: HEK293 cells (ATCC No. CRL-1573), pcDNA3.1(+) plasmid
Format: cell-based
Description: T-Type Calcium Blocking Action
(1) Construction of Cells Steadily Expressing Human Cav3.2 Channels
A sequence obtained by adding HindIII site and a kozak sequence (GCCACC) to the 5′-side of human Cav3.2 channel ORF (Open Reading Frame) gene and adding a KpnI site to the 3′-side of the gene, was incorporated into pcDNA3.1(+) (Thermo Fisher Scientific, #V790-20), and the plasmid was introduced into HEK293 cells (ATCC No. CRL-1573) according to the protocol of FuGENE (registered trademark) HD Transfection Reagent (Promega, #E2311).
(2) Method for Measuring Intracellular Calcium Concentration
The cells steadily expressing human Cav3.2 channels produced by testing method (1) were seeded on a 96-well plate (Dulbecco's modified Eagle medium (DMEM) medium containing 10% fetal bovine serum (FBS) was used as a medium). The cells were seeded and cultured for 48 hours under conditions of 37° C. and 5% CO2. Thereafter, the cells were washed with buffer A in order to remove the medium. Each well was treated with 80 μL of a fluorescent dye solution produced by mixing 22 μg of a fluorescent calcium indicator, Fluo-4 AM (Dojindo Laboratories, #F311), 20 μL of DMSO, 1 μL of 10% Pluronic F-127 (Thermo Fisher Scientific, #P6866), and 4 mL of buffer A. The cells were allowed to stand for 45 minutes at room temperature under light-shielded conditions, and then washed with buffer B in order to completely replace the solution. 70 μL of DMSO having the same concentration as that of a test compound as a negative control and 70 μL of a mixture containing 1 μM of a known blocker RQ-00311651 and the test compound as a positive control were each added to each well in a form of being contained in the buffer B. The test compound was dissolved in 100% DMSO and added at a final concentration of 0.1%. Then, the cells were further allowed to stand at room temperature under light-shielded conditions for 15 minutes and placed in a microplate reader EnVision (PerkinElmer). Background fluorescence was measured in each well, and then a 5 μg/mL grammicidin solution was added to buffer B at 10 μL/well. After 90 seconds, baseline fluorescence was measured. Thereafter, 83.8 mM KCl was added to buffer B at 20 μL/well, and an increase in fluorescence caused by calcium influx generated by the stimulus was measured for 10 seconds. A blocking percentage was calculated from a maximum fluorescence increase value from a baseline, a logarithmic value of a compound concentration and blockery activity were plotted, and thereby an IC50 value was calculated. In the measurement, fluorescence at 510 nm that was emitted when the cells were irradiated with excitation light at 485 nm was observed.
Buffer A: 140 mM NaCl, 5 mM KCl, 1 mM MgCl2, 0.5 mM CaCl2, 10 mM Glucose, 10 mM HEPES, pH 7.3
Buffer B: 137.9 mM Choline-Cl, 4.1 mM KCl, 1 mM MgCl2, 0.5 mM CaCl2, 10 mM Glucose, 10 mM HEPES, pH 7.3

T1 sequence (O95180 whole entry): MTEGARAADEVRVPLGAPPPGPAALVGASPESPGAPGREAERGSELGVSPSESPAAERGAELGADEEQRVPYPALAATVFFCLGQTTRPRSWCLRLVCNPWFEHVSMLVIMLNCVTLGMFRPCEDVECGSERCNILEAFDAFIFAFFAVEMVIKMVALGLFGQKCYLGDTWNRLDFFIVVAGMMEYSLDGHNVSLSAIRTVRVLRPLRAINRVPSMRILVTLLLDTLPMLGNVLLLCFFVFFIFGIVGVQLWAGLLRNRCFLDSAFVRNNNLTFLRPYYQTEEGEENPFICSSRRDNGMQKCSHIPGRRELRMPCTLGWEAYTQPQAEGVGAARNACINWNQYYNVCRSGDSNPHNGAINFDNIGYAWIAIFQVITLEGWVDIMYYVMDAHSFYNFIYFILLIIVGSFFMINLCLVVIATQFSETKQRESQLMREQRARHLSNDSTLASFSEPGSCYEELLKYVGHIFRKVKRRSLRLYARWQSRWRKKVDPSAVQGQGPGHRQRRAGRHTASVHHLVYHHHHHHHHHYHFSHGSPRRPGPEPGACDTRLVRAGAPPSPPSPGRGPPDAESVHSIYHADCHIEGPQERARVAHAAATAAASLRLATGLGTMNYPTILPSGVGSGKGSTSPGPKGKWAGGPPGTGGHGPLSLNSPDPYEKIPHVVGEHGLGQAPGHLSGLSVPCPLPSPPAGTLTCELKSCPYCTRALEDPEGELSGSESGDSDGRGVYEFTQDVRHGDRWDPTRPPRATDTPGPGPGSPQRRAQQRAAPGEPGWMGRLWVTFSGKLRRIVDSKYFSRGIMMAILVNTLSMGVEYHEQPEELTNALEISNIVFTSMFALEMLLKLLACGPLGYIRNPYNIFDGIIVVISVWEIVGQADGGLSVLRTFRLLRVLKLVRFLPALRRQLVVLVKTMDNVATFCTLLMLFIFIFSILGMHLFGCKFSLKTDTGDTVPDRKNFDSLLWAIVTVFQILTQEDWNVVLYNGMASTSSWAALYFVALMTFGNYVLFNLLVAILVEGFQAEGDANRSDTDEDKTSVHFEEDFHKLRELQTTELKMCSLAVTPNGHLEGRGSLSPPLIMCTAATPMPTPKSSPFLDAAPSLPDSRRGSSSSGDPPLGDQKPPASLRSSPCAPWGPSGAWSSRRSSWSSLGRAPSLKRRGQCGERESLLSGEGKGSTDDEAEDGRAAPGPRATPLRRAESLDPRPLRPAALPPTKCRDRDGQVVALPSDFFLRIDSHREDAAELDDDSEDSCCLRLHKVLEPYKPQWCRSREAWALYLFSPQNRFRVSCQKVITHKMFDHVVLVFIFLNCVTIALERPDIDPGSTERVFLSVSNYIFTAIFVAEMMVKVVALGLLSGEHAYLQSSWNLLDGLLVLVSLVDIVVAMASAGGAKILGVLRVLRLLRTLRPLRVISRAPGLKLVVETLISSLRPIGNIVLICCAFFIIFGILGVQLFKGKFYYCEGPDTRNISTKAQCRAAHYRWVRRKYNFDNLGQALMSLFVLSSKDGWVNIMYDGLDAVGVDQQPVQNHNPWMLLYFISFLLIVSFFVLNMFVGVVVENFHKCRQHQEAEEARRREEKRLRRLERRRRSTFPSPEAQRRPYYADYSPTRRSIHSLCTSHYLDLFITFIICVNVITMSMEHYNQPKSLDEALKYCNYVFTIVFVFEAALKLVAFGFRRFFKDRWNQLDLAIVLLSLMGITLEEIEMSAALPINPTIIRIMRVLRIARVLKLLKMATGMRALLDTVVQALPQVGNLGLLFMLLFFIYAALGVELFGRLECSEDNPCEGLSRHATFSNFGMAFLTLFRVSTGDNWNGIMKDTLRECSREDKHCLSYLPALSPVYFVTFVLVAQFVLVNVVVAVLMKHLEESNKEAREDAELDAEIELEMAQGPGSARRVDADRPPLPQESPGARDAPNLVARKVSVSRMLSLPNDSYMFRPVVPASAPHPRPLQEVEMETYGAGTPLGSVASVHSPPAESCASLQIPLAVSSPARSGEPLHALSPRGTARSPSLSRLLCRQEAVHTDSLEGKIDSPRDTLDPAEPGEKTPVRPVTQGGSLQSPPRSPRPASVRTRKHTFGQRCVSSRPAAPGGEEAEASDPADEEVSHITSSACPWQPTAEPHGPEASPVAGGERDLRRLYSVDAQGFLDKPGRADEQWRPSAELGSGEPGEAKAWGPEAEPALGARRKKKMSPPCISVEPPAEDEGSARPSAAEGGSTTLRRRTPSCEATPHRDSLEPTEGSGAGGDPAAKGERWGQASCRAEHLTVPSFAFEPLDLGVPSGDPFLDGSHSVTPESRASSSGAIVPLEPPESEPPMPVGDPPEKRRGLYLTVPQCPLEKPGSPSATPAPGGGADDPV

IC50 [nM]	SMILES
110	O=C(N[C@@H]1CCN(c2ccc(C(F)(F)F)cc2)C1)C1CC1c1nc2ccccc2[nH]1 (single isomer, unassigned) [Example 52]
1000	O=C(N[C@H]1CCN(c2ccc(C(F)(F)F)cc2)C1)C1CC1c1nc2ccccc2[nH]1 (single isomer, unassigned) [Example 53]
190	O=C(N[C@@H]1CCCN(c2ccc(C(F)(F)F)nc2)C1)C1CC1c1nc2ccccc2[nH]1 (single isomer, unassigned) [Example 63A]
> 10000	O=C(N[C@@H]1CCCN(c2ccc(C(F)(F)F)nc2)C1)C1CC1c1nc2ccccc2[nH]1 (single isomer, unassigned) [Example 63B]
69	O=C(N[C@@H]1CCN(c2ccc(C(F)(F)F)nc2)C1)C1CC1c1c[nH]c2ccccc12 (single isomer, unassigned) [Example 66]
90	O=C(N[C@@H]1CCN(c2cncc(C(F)(F)F)c2)C1)C1CC1c1cc(Cl)cc(Cl)c1 (single isomer, unassigned) [Example 99A]
480	O=C(N[C@@H]1CCN(c2cncc(C(F)(F)F)c2)C1)C1CC1c1cc(Cl)cc(Cl)c1 (single isomer, unassigned) [Example 99B]
9.3	O=C(N[C@@H]1CCN(c2cncc(C(F)(F)F)c2)C1)C1CC1c1ccc(Br)cc1 (single isomer, unassigned) [Example 100A]
460	O=C(N[C@@H]1CCN(c2cncc(C(F)(F)F)c2)C1)C1CC1c1ccc(Br)cc1 (single isomer, unassigned) [Example 100B]
11	O=C(N[C@@H]1CCN(c2cncc(C(F)(F)F)c2)C1)C1CC1c1ccc(C2CC2)cc1 (single isomer, unassigned) [Example 106A]
400	O=C(N[C@@H]1CCN(c2cncc(C(F)(F)F)c2)C1)C1CC1c1ccc(C2CC2)cc1 (single isomer, unassigned) [Example 106B]
4.7	O=C(N[C@@H]1CCN(c2cncc(C(F)(F)F)c2)C1)C1CC1c1ccc(F)c(F)c1 (single isomer, unassigned) [Example 107A]
560	O=C(N[C@@H]1CCN(c2cncc(C(F)(F)F)c2)C1)C1CC1c1ccc(F)c(F)c1 (single isomer, unassigned) [Example 107B]
5.7	O=C(N[C@@H]1CCN(c2cncc(C(F)(F)F)c2)C1)C1CC1c1ccc(Cl)cc1 (single isomer, unassigned) [Example 108A]
200	O=C(N[C@@H]1CCN(c2cncc(C(F)(F)F)c2)C1)C1CC1c1ccc(Cl)cc1 (single isomer, unassigned) [Example 108B]
100	NC(C(=O)N[C@@H]1CCN(c2cncc(C(F)(F)F)c2)C1)c1ccc(C2CC2)cc1 (single isomer, unassigned) [Example 137A]
820	NC(C(=O)N[C@@H]1CCN(c2cncc(C(F)(F)F)c2)C1)c1ccc(C2CC2)cc1 (single isomer, unassigned) [Example 137B]
30	O=C(Cc1ccc(N2CC3CC2CO3)cc1)N[C@@H]1CCN(c2cncc(C(F)(F)F)c2)C1 (single isomer, unassigned) [Example 165]

IC50 [nM]	SMILES
220	O=C(Cc1ccc(N2CC3CC2CO3)cc1)N[C@@H]1CCN(c2ccc(C(F)(F)F)nc2)C1 (single isomer, unassigned) [Example 166]
13	O=C(Cc1ccc(C2CC2)cc1)N[C@@H]1CCN(c2cncc(C(F)(F)F)c2)C1 [Example 1, (R)-2-(4-cyclopropylphenyl)-N-(1-(5-(trifluoromethyl)pyridin-3-yl)pyrrolidin-3-yl)acetamide]
1300	O=C(Cc1ccc(C(F)(F)F)cn1)N[C@@H]1CCN(c2cncc(C(F)(F)F)c2)C1 [Example 2, (R)-2-(5-(trifluoromethyl)pyridin-2-yl)-N-(1-(5-(trifluoromethyl)pyridin-3-yl)pyrrolidin-3-yl)acetamide]
850	CC(C)c1ccc(CC(=O)N[C@@H]2CCN(c3cnc(C(F)(F)F)nc3)C2)cc1 [Example 3, (R)-2-(4-isopropylphenyl)-N-(1-(2-(trifluoromethyl)pyrimidin-5-yl)pyrrolidin-3-yl)acetamide]
14	CC(C)c1ccc(CC(=O)N[C@@H]2CCN(c3cncc(C(F)(F)F)c3)C2)cc1 [Example 4, (R)-2-(4-isopropylphenyl)-N-(1-(5-(trifluoromethyl)pyridin-3-yl)pyrrolidin-3-yl)acetamide]
290	O=C(Cc1ccc(C2CC2)cc1)N[C@H]1CN(c2cncc(C(F)(F)F)c2)C[C@@H]1O [Example 5, 2-(4-cyclopropylphenyl)-N-((3S,4S)-4-hydroxy-1-(5-(trifluoromethyl)pyridin-3-yl)pyrrolidin-3-yl)acetamide]
130	O=C(Cc1ccc(C2CC2)cc1)N[C@H]1CN(c2cncc(C(F)(F)F)c2)CC12CC2 [Example 6, (R)-2-(4-cyclopropylphenyl)-N-(5-(5-(trifluoromethyl)pyridin-3-yl)-5-azaspiro[2.4]heptan-7-yl) acetamide]
97	O=C(Cc1ccc(C2CC2)cc1)N[C@H]1CN(c2ccc(C(F)(F)F)nc2)CC12CC2 [Example 7, (R)-2-(4-cyclopropylphenyl)-N-(5-(6-(trifluoromethyl)pyridin-3-yl)-5-azaspiro[2.4]heptan-7-yl) acetamide]
200	O=C(Cc1ccc(C2CC2)cc1)N[C@H]1CN(c2nc(C(F)(F)F)cs2)CC12CC2 [Example 8, (R)-2-(4-cyclopropylphenyl)-N-(5-(4-(trifluoromethyl)thiazol-2-yl)-5-azaspiro[2.4]heptan-7-yl) acetamide]
480	C[C@H]1C[C@@H](NC(=O)Cc2ccc(C3CC3)cc2)CN1c1cncc(C(F)(F)F)c1 [Example 9, 2-(4-cyclopropylphenyl)-N-((3R,5S)-5-methyl-1-(5-(trifluoromethyl)pyridin-3-yl)pyrrolidin-3-yl)acetamide]
410	O=C(Cc1ccc(C2CC2)cc1)N[C@]12CC1CN(c1cncc(C(F)(F)F)c1)C2 (some centres unmarked) [Example 10, 2-(4-cyclopropylphenyl)-N-(3-(5-(trifluoromethyl)pyridin-3-yl)-3-azabicyclo[3.1.0]hexan-1-yl) acetamide]
180	O=C(Cc1ccc(C(F)(F)F)cc1)N[C@@H]1CCN(c2cncc(C(F)(F)F)n2)C1 [Example 11, (R)-2-(4-(trifluoromethyl)phenyl)-N-(1-(6-(trifluoromethyl)pyrazin-2-yl)pyrrolidin-3-yl)acetamide]
280	N#Cc1ncc(N2CC[C@@H](NC(=O)Cc3ccc(C4CC4)cc3)C2)cc1C(F)(F)F [Example 12, (R)—N-(1-(6-cyano-5-(trifluoromethyl)pyridin-3-yl)pyrrolidin-3-yl)-2-(4-cyclopropylphenyl)acetamide]
18	COC(=O)C1(NC(=O)Cc2ccc(C3CC3)cc2)CCN(c2cncc(C(F)(F)F)c2)C1 (centres unmarked) [Example 13, Methyl 3-(2-(4-cyclopropylphenyl)acetamido)-1-(5-(trifluoromethyl)pyridin-3-yl)pyrrolidine-3-carboxylate]
5200	O=C(Cc1ccc(C2CC2)cc1)NC1(C(=O)O)CCN(c2cncc(C(F)(F)F)c2)C1 (centres unmarked) [Example 14, 3-(2-(4-cyclopropylphenyl)acetamido)-1-(5-(trifluoromethyl)pyridin-3-yl)pyrrolidine-3-carboxylic acid]
370	O=C(Cc1ccc2cn[nH]c2c1)N[C@@H]1CCN(c2cncc(C(F)(F)F)c2)C1 [Example 15, (R)-2-(1H-indazol-6-yl)-N-(1-(5-(trifluoromethyl)pyridin-3-yl)pyrrolidin-3-yl)acetamide]
320	O=C(Cc1ccc(C2CC2)cc1)N[C@@H]1CCN(c2nc(C(F)(F)F)cs2)C1 [Example 16, (R)-2-(4-cyclopropylphenyl)-N-(1-(4-(trifluoromethyl)thiazol-2-yl)pyrrolidin-3-yl)acetamide]

— patent publication US20220226299A1 (NIPPON CHEMIPHAR CO., LTD., priority 2019, published 2022)
